Measured values from US20060264367A1, “Prevention of fibrosis following cardiac injury” (Howard Florey Institute, priority 2005, published 2006).

How the values were obtained:
Assay type in all cases: cell-based, rat
[1] = test system: atrial and ventricular fibroblasts; assay: Cardiac fibroblast proliferation (cell counts and [3H]-thymidine incorporation); conditions: for increase in fibroblast proliferation: 3 days; for increase in atrial and ventricular fibroblast proliferation: 72 h
Protocol: The ability of rhRLX to modulate cardiac fibroblast proliferation was investigated in the absence or presence of Ang II and IGF-I, which both potently stimulate fibroblast proliferation. Cardiac fibroblasts were plated at an equal density of 10^4 cells/96-well plate in DMEM-FBS. Twenty-four hours later, media were changed to DMEM supplemented with lactalbumin hydrolysate, and cells were labelled with [^3H]-thymidine (3 μCi/ml) in the presence of rhRLX (100 ng/ml) alone or in combination with IGF-I (0.1 μg/ml, 0.5 μg/ml, and 1 μg/ml) or Ang II (10^−8 M and 10^−7 M) for 72 hours. [^3H]-thymidine incorporation and cell counts, using a hemocytometer, were evaluated.

[2] = test system: atrial and ventricular fibroblasts; assay: Collagen secretion into media by cardiac fibroblasts ([3H]-proline labelling); conditions: 72 h
Protocol: (§1) Distribution of relaxin and LGR7 expression was determined in atrial myocytes and fibroblasts, ventricular myocytes and fibroblasts, and vascular smooth muscle cells (VSMC). These cells were obtained from neonate rats using standard collagenase digestion methods. Neonate (1 day old) Sprague Dawley rats were used for tissue collection and subsequent cardiac cell isolation and preparation. The cells were maintained in DMEM supplemented with 10% fetal calf serum, penicillin (50 U/ml), and streptomycin (50 μg/ml) (DMEM-FBS). Cardiac fibroblast isolation from myocytes and subsequent preparation were performed as described previously (Gray M O et al. (1998) Cardiovasc Res 40:352-363). These preparations contained more than 95% cardiac fibroblasts as determined by morphological appearance and immunocytochemical staining. Fibroblasts were used between passages 2 and 4 for all studies.
Atrial and ventricular fibroblasts were subjected to TGF-β or Ang II in the absence or presence of rhRLX over 3 days. For the TGF-β studies, cells were treated for 72 hours with rhRLX (100 ng/ml), TGF-β (1 or 2 ng/ml), or a combination of rhRLX (100 ng/ml) and TGF-β (2 ng/ml) in serum-free DMEM supplemented with lactalbumin hydrolysate. For the Ang II studies, fibroblasts were treated with Ang II (1×10^−7 M and 5×10^−7 M) or a combination of rhRLX (100 ng/ml) and Ang II (1 or 5×10^−7 M). TGF-B3 (1 ng/ml) alone induced an 85-95% increase in secretion of interstitial (types I and III) collagen into the cultured media.
For measurement of collagen synthesis, collagen was biosynthetically labelled with [^3H]-proline in the presence of ascorbate and β-aminopropionitrile, as previously described (Unemori et al, supra). For measurement of collagen deposition into the cell matrix, cell layers (per well) were isolated and hydrolyzed with 6 M hydrochloric acid for measurement of hydroxyproline content, as described previously (Samuel C S et al. (1996) Endocrinology 137:3884-3890; Gallop P M, Paz M A (1975) Physiol Rev 55:418487). […]

[3] = test system: atrial and ventricular fibroblasts; assay: Collagen deposition into the cell matrix (hydroxyproline content of cell layers); conditions: stimulus alone, 72 h
Protocol: as §1
Fibroblasts were also plated at 5/mm^2 and grown for 7 days in the absence or presence of rhRLX (100 ng/ml). […]
Collagen content of cell layers from untreated fibroblasts and cells treated with rhRLX (100 ng/ml) alone, TGF-β (2 ng/ml) alone, or TGF-β (2 ng/ml) and rhRLX (100 ng/ml) was measured after 72 hours of culture. The collagen content of cell layers from untreated atrial fibroblasts and cells treated with Ang II (10^−7 M) alone or Ang II (10^−7 M) and rhRLX (100 ng/ml) was measured after 72 hours of culture. […]

MMP-2 = assay: Gelatin zymography of conditioned media, MMP-2 expression; conditions: TGF-β 2 ng/ml alone, 72 h
Protocol: The effects of rhRLX on MMP expression, were determined using gelatin zymography of conditioned media, performed as previously described (Talhouk R S et al. (1991) 112:439-449). Briefly, the neonatal cardiac cells (1×10^5/cm^2) were treated with either TGF-β (2 ng/ml) or Ang II (10^−7 M) in the absence or presence of rhRLX (100 ng/ml) for 72 h; the final 24 hours of treatment were under serum-free conditions. Equal aliquots of the collected media were then analyzed on zymogram gels consisting of 7.5% acrylamide and 1 mg/ml gelatin, and the gels were subsequently treated as previously detailed (Talhouk R S, supra).

α-SMA = assay: Fibroblast differentiation to myofibroblasts, Western blot of α-SMA; conditions: TGF-β 2 ng/ml or Ang II 10^−7 M alone, 72 h, ventricular fibroblasts
Source text: In the normal heart, cardiac fibroblasts are relatively quiescent, but upon pathological stimuli to the heart they proliferate and differentiate into activated myofibroblasts. These myofibroblasts, the hallmarks of which are α-SMA expression and production of prodigious amounts of collagen, are important contributors to fibrosis and the pathology of the heart (Eghbali M (1998) Basic Res Cardiol 87(Suppl 2):183-189; Bouzegrhane F, Thibault G (2002) Cardiovasc Res 53:304-312). Ventricular fibroblast differentiation to myofibroblasts was analyzed by measuring α-SMA expression by ventricular fibroblasts. In all experiments, an equal amount of total protein (10 μg/sample) was analyzed. α-SMA was sized at 43 kDa under nonreducing conditions when detected with a monoclonal antibody. In some experiments, cells were either untreated or treated with TGF-β (2 ng/ml) alone or TGF-β (2 ng/ml) and rhRLX (100 ng/ml) for 72 hours. In other experiments, cells were either untreated or treated with Ang II (10^−7 M) alone or Ang II (10^−7 M) and rhRLX (100 ng/ml) for 72 hours.
Fibroblast differentiation into myofibroblasts was determined by α-SMA expression. […] Cell layers were trypsinized, and the protein was extracted using Trizol reagent (according to the manufacturer's instructions; Life Technologies, Gaithersburg, Md.) and analyzed by the Bio-Rad dye-binding protein assay (Bio-Rad, Richmond, Calif.). […]

| Substance | increase in fibroblast proliferation ([1]; IGF-I 0.1 μg/ml) | increase in fibroblast proliferation ([1]; IGF-I 0.5 μg/ml) | increase in fibroblast proliferation ([1]; IGF-I 1.0 μg/ml) | increase in secretion of interstitial (types I and III) collagen into the cultured media ([2]; 1 ng/ml alone) | up-regulation of collagen deposition into the matrix of fibroblasts [3] | MMP-2 expression (MMP-2) | increase in α-SMA expression (α-SMA) | increase in collagen secretion ([2]; Ang II 1×10^−7 M alone) | increase in collagen secretion ([2]; Ang II 5×10^−7 M alone) | increase in atrial and ventricular fibroblast proliferation ([1]; Ang II 10^−7 M) | increase in atrial and ventricular fibroblast proliferation ([1]; Ang II 10^−8 M) |
| --- | --- | --- | --- | --- | --- | --- | --- | --- | --- | --- | --- |
| IGF-I: growth factor that potently stimulates fibroblast proliferation | 27-30% | 36-40% | 34-40% | – | – | – | – | – | – | – | – |
| TGF-β | – | – | – | 85-95% | 65-85% | modest increase | 85-95% | – | – | – | – |
| angiotensin II (DRVYIHPF; Angiotensin-2; UniProt P01019 25-32, looked up) [Ang II, angiotensin II, profibrotic stimulus obtained from Sigma-Aldrich] | – | – | – | – | 20-50% | – | 25-35% | 50-60% | 15-20% | 6473% | 63-75% |
